Data reported in ChEMBL document CHEMBL5346885, “"Hit" to lead optimization and chemoinformatic studies for a new series of Autotaxin inhibitors” (Eur J Med Chem, 2023).
Converted amounts (≈) assume the structure as drawn. The source made the active and inactive calls. The rule behind the calls is not given here.

Tests used:
Autotaxin [1] = target: Autotaxin (Mus musculus, UniProt Q9R1E6); assay: Inhibition of mouse ATX using LPC as substrate preincubated with compound for 15 mins followed by substrate addition measured after 30 mins by Amplex Red reagent based fluorescence analysis
Autotaxin [2] = target: T1, Autotaxin (Homo sapiens, UniProt Q13822); assay: Inhibition of human ATX using LPC as substrate preincubated with compound for 15 mins followed by substrate addition measured after 30 mins by Amplex Red reagent based fluorescence analysis
[3] = target: 3',5'-cyclic phosphodiesterase; assay: Inhibition of PDE (unknown origin); assay type: protein assay, Homo sapiens
Autotaxin [4] = target: T1, Autotaxin; assay: Mixed type inhibition of human ATX assessed as inhibition constant using LPC as substrate by Lineweaver-Burk plot analysis
A549 [5] = assay: Antitumor activity against human A549 cells assessed as redcution in cell viability measured after 24 hrs by MTT assay; assay type: functional, cell-based; details: dose 0.5-50 µM
[6] = Kinetic solubility of compound in simulated gastric fluid at pH 1.7 by HPLC analysis
A549 [7] = assay: Inhibition of cell migration in human A549 cells at 5 uM incubated for 24 hrs by crystal violet staining based transwell assay; assay type: functional
[8] = Kinetic solubility of compound in simulated intestinal fluid at pH 6.6 by HPLC analysis
[9] = Kinetic solubility of compound in PBS at pH 7.4 by HPLC analysis
A549 [10] = assay: Antiproliferative activity against human A549 cells assessed as redcution in cell growth measured after 24 hrs by MTT assay; assay type: functional, cell-based; details: dose 0.5-50 µM
[11] = Cytotoxicity against wild type Fibroblast (unknown origin) assessed as redcution in cell growth measured after 48 hrs by crystal violet staining based analysis; details: wild type fibroblasts
[12] = tested on: O=C(Nc1c2c(nn1-c1ccc(Br)cc1)CSC2)c1cc(Cl)cc(Cl)c1; assay: (§1) Mixed type inhibition of human ATX assessed as km using LPC as substrate by Lineweaver-Burk plot analysis
[13] = tested on: CO[C@](C(=O)Nc1c2c(nn1-c1ccc(Br)cc1)CSC2)(c1ccccc1)C(F)(F)F; assay: as §1

Compound	IC50 (Autotaxin [1]) [µM]	IC50 (Autotaxin [2]) [µM]	further results
O=C(Nc1c2c(nn1-c1cnccn1)CSC2)c1cccc2ccccc12	1.8	0.9	IC50 [3]: 0.33 µM
CO[C@](C(=O)Nc1c2c(nn1-c1ccc(Br)cc1)CSC2)(c1ccccc1)C(F)(F)F	–	2	Ki (Autotaxin [4]): 6.83 µM; Activity (A549 [5]): Dose-Dependent Effect; solubility kinetic [6]: 16.7 µM (≈ 8.58 µg/mL); inhibition (A549 [7]): Active; solubility kinetic [8]: 2.55 µM (≈ 1.31 µg/mL); solubility kinetic [9]: 1.26 µM (≈ 0.646 µg/mL); Activity (A549 [10]): Dose-Dependent Effect; CC50 at 48 h [11]: > 100 µM
CO[C@](C(=O)Nc1c2c(nn1-c1ccc(Br)cc1)CCC2)(c1ccccc1)C(F)(F)F	–	24.4	–
O=C(Nc1c2c(nn1-c1ccc(Br)cc1)CCC2)c1cc(Cl)cc(Cl)c1	–	6.6	–
O=C(Cc1ccc(F)cc1)Nc1c2c(nn1-c1ccc(Br)cc1)CSC2	–	7.6	–
COC(=O)c1ccc(-n2nc3c(c2NC(=O)c2cccc4ccccc24)CSC3)cc1	> 100	–	–
O=C(Nc1c2c(nn1-c1ccc(Br)cc1)COC2)c1cc(Cl)cc(Cl)c1	–	> 100	–
O=C(Cc1ccc(F)cc1)Nc1c2c(nn1-c1ccncc1)CSC2	–	> 50	–
CCc1nc2c(C)cc(N3CCN(CC(=O)N4CC(O)C4)CC3)cn2c1N(C)c1nc(-c2ccc(F)cc2)c(C#N)s1 [ZIRITAXESTAT]	–	–	solubility kinetic [6]: 200 µM (≈ 118 µg/mL); solubility kinetic [8]: 97 µM (≈ 57.1 µg/mL); solubility kinetic [9]: 96.9 µM (≈ 57 µg/mL)
O=C1S/C(=C\c2ccc(OCc3ccc(B(O)O)cc3)cc2)C(=O)N1Cc1ccc(F)cc1	–	–	solubility kinetic [6]: 3.08 µM (≈ 1.43 µg/mL); solubility kinetic [8]: 1.05 µM (≈ 0.486 µg/mL)
O=C(Nc1c2c(nn1-c1ccc(OC(F)(F)F)cc1)CSC2)c1cccc2ccccc12	22.1	–	–
CC(C)(C)n1nc2c(c1NC(=O)c1cccc3ccccc13)CSC2	> 100	–	–
O=C(Nc1c2c(nn1-c1ccc(Br)cc1)CSC2)c1cc(F)cc(C(F)(F)F)c1	–	11.2	–
O=C(Cc1ccc2ccccc2c1)Nc1c2c(nn1-c1ccc(Br)cc1)CSC2	–	21.2	–
O=C(CCN1CCN(C(=O)OCc2cc(Cl)cc(Cl)c2)CC1)c1ccc2[nH]c(=O)oc2c1	–	–	solubility kinetic [6]: 15.4 µM (≈ 7.35 µg/mL); solubility kinetic [9]: 1.22 µM (≈ 0.584 µg/mL)
O=C(Nc1c2c(nn1-c1ccc(F)c(Cl)c1)CSC2)c1cccc2ccccc12	40.8	–	–
Autotaxin (Homo sapiens) (from UniProt Q13822)	–	–	Km [12]: 17.1 µM; Km [13]: 5.61 µM
O=C(Nc1c2c(nn1-c1ccc(Br)cc1)CS(=O)(=O)C2)c1cccc2ccccc12	–	> 100	–

Compound	IC50 (Autotaxin [1]) [µM]	IC50 (Autotaxin [2]) [µM]	further results
O=C(O)c1ccc(-n2nc3c(c2NC(=O)c2cccc4ccccc24)CSC3)cc1	48.3	–	–
O=C(Nc1c2c(nn1-c1ccc(Br)cc1)CSC2)c1cc(Cl)cc(Cl)c1	1.8	6.7	Ki (Autotaxin [4]): 6.26 µM; Activity (A549 [5]): Dose-Dependent Effect; solubility kinetic [6]: 5.02 µM (≈ 2.36 µg/mL); inhibition (A549 [7]): Active; solubility kinetic [8]: 4.18 µM (≈ 1.96 µg/mL); Activity (A549 [10]): Dose-Dependent Effect; CC50 at 48 h [11]: > 100 µM
O=C(Nc1c2c(nn1-c1ccc(F)c(F)c1)CSC2)c1cccc2ccccc12	63	–	–
O=C(Nc1c2c(nn1-c1ccc(C(F)(F)F)cc1)CSC2)c1cccc2ccccc12	46.6	–	–
O=C(CN1CCN(C(=O)c2cc(Cl)cc(Cl)c2)CC1)Nc1ccn(-c2ccc(Br)cc2)n1	–	25	–
O=C(Nc1c2c(nn1-c1ccc(Br)cc1)CSC2)c1ccc2ccccc2c1	–	12.1	–
O=C(Nc1c2c(nn1-c1ccc([N+](=O)[O-])cc1)CSC2)c1cccc2ccccc12	38.4	16	solubility kinetic [6]: 2.73 µM (≈ 1.14 µg/mL); IC50 [3]: 73 µM; CC50 at 48 h [11]: > 100 µM
O=C(Nc1c2c(nn1-c1ccncc1)CSC2)c1cccc2ccccc12	2.7	5.3	–
NS(=O)(=O)c1ccc(-n2nc3c(c2NC(=O)c2cccc4ccccc24)CSC3)cc1	79.8	–	–
O=C(Nc1c2c(nn1-c1ccc(Cl)c(Cl)c1)CSC2)c1cccc2ccccc12	40	–	–
O=C(Nc1c2c(nn1-c1ccc(Br)cc1)CSC2)c1ccc(C(F)(F)F)cc1	–	37.3	–
Cc1ccc(-n2nc3c(c2NC(=O)c2cccc4ccccc24)CSC3)cc1Cl	80	–	–
O=C(c1cc(Cl)cc(Cl)c1)N1CCN(c2c3c(nn2-c2ccc(Br)cc2)CSC3)CC1	–	70	–
COc1ccc(-n2nc3c(c2NC(=O)c2cccc4ccccc24)CSC3)cc1	> 100	> 100	–
Cc1cc(C(=O)Nc2c3c(nn2-c2ccc(Br)cc2)CSC3)ccc1F	–	41.8	–
O=C(Nc1c2c(nn1-c1ccccc1)CSC2)c1cccc2ccccc12	> 100	> 100	–
O=C(Nc1c2c(nn1-c1ccc(Br)cc1)CSC2)c1cccc2ccccc12	5.3	4.6	–
O=C(Nc1c2c(nn1-c1cc(F)cc(F)c1)CSC2)c1cccc2ccccc12	53.7	–	–
